Assay results as given in patent US20190116792A1 (Dow Global Technologies LLC, priority 2016, published 2019).

System: Chlorella sp.
Test: Algal efficacy testing of dry paint film coupons (modified ASTM 5589, 6-well plates)
Type: cell-based, Chlorella sp. ATCC 7516
Details: for Total conc, ppm (concentration giving pass level ≥ 75% inhibition): total active ingredient in acrylic/silicone paint, dry film coupon, used as minimum inhibitory concentration for SI
Experimental: These paints were then diluted with a biocide free acrylic/silicone based paint and mixed to prepare targeted concentrations of biocide combinations for the testing. The total biocides concentrations obtained were 125, 250, 500, 1000, 2000 and 5000 ppm. After biocides addition or dilution, the paints were mixed 90 seconds with the horse power shaker (AXEL 75M3372/Agitateur SO-10MI) until uniformity was achieved. […] After one day, the paints were applied to Schleicher & Schuell filter paper at 280 μm wet film thickness and dried for 3 days at room temperature avoiding direct exposure to sunlight. Square discs (1.8 cm×1.8 cm) were cut out from each panel and were used as the substrate for algal efficacy tests. This sample size allowed for an agar border when the sample disc was placed into the well of the test plate.
Algal efficacy was tested according to modified ASTM 5589 which is a standard accelerated test method for determining resistance of various coatings (including paints) to algal defacement. To accommodate for high-throughput screening, this method was scaled down from petri plates to 6-well plates. Bold Modified Basal Freshwater Nutrient Solution was used as growth medium for the algal culture and Bold's agar was used for the efficacy testing. A single coupon was placed with a pair of sterile forceps at the center of the agar plug (on top) with the painted surface facing upwards. The algal inoculum was prepared by diluting an exponentially growing culture of Chlorella sp. to 1×10^6 cfu/ml.
Each well that contains a tested coupon was inoculated with 1750 μl of algal suspension (1×10^6 cfu/ml) making sure that the whole surface (paint film as well as the agar surrounding it) was evenly covered. The plates were incubated at room temp (21° C.-25° C.) with cyclic exposure to 14 hours fluorescent light followed by 10 hours darkness, for a period of three weeks.
At the end of the incubation period the samples were scored for percent inhibition regarding color intensity compared to the blank sample
The SI is calculated based on F. C. Kull et.
SI=Qa/QA+Qb/QB • Qa=the concentration of Antimicrobial A in the blend • QA=the concentration of Antimicrobial A as the only biocide • Qb=the concentration of Antimicrobial B in the blend • QB=the concentration of Antimicrobial B as the only antimicrobial
SI value of <1 in the formula indicates a synergism of the blended biocides exists.
The minimal targeted inhibition was set at 75%, meaning a coupon with at least 75% algal growth inhibition was considered as a pass.

| Compound | inhibition at 1000 ppm (504 h) | Total conc, ppm (concentration giving pass level ≥ 75% inhibition) (three weeks) | inhibition at 10000 ppm (504 h, total conc 10000 ppm in paint, three weeks, color intensity vs blank) |
| --- | --- | --- | --- |
| O=c1[nH]c2c(c(=O)n1C1CCCCC1)CCC2 [Lenacil, 3-Cyclohexyl-6,7-dihydro-1H-cyclopentapyrimidine-2,4-(3H,5H)-dione] | 90% | 1,000 ppm |  |
| c1ccc2[nH]c(-c3cscn3)nc2c1 [Thiabendazole, 4-(1H-1,3-benzodiazol-2-yl)-1,3-thiazole] |  | 10000 ppm | 75% |
